Laboratory results from US9278068B2, “Vesicle compositions” (Sensulin LLC, priority 2011, dated 2016).

Columns and labels:
HeLa cells = assay: MTT assay for cytotoxicity; settings: 2 h
Procedure: The cytotoxicity of the boronic acid derivatives from Table 1 was studied by MTT assay. 150,000 HeLa cells were plated in 96 well plates on the night before the experiments. On the day of experiments, the cells were treated with the boronic acid derivatives at three different concentrations (40 nM, 80 nM, and 160 nM) for 2 h. At the end of the incubation, MTT assays (In-Vitro toxicology MTT based assay kit, Sigma Aldrich, MO) were performed according to the manufacturer's protocol.

NF-κB = NF-κB assay for inflammation (nuclear translocation of NF-κB, immunocytochemistry, PCC); settings: HeLa cells; for Inflammation (PCC) 40 nM / Inflammation (PCC) 80 nM / Inflammation (PCC) 160 nM: 2 h, PCC between nuclear and cytoplasmic fraction of NF-κB; for nuclear or cytoplasmic localization of NF-κB (FIG. 4 images): boronic acids 80 nM, 2 hrs, LPS positive control

| Molecule | MTT (% Cell Survival) 40 nM (HeLa cells) [%] | MTT (% Cell Survival) 80 nM (HeLa cells) [%] | MTT (% Cell Survival) 160 nM (HeLa cells) [%] | Inflammation (PCC) 40 nM (NF-κB) | Inflammation (PCC) 80 nM (NF-κB) | Inflammation (PCC) 160 nM (NF-κB) | nuclear or cytoplasmic localization of NF-κB (FIG. 4 images) (NF-κB) |
| --- | --- | --- | --- | --- | --- | --- | --- |
| OB(O)c1cccc2cnccc12 [5-isoquinolineboronic acid] | 75.80 | 60.84 | 41.69 | −0.0412 | 0.02463 | 0.2784 | predominantly nuclear NF-κB |
| OB(O)c1cccs1 [2-thienylboronic acid] | 53.48 | 75.76 | 61.19 | −0.121 | −0.0343 | 0 | – |
| OB(O)c1cc(Br)cs1 [3-bromothiophene-5-boronic acid] | 116.67 | 97.63 | 62.08 | −0.1162 | −0.023 | 0.1539 | – |
| COc1ccc(C#N)cc1B(O)O [5-cyano-2-methoxyphenylboronic acid] | 81.55 | 49.84 | 62.08 | −0.0808 | −0.0523 | −0.08086 | – |
| N#Cc1ccc(B(O)O)cc1 [4-cyanophenylboronic acid] | 60.40 | 63.69 | 54.22 | −0.0705 | −0.204 | 0.4879 | – |
| OB(O)c1c(F)c(F)c(F)c(F)c1F [pentafluorophenylboronic acid] | 65.63 | 60.00 | 50.98 | 0.0154 | 0.0762 | 0.2584 | – |
| OB(O)c1cccc(OCc2ccccc2)c1 [3-(benzyloxy)phenylboronic acid] | 99.83 | 71.94 | 28.92 | −0.1159 | 0.0809 | 0.3768 | – |
| OB(O)c1ccnc(Cl)c1 [2-chloropyridine-4-boronic acid] | 84.93 | 58.47 | 56.36 | −0.1195 | 0.00374 | 0 | – |
| N#Cc1ccccc1B(O)O [2-cyanophenylboronic acid] | 117.42 | 62.63 | 60.33 | −0.0641 | 0.0475 | 0.104 | – |
| OB(O)c1ccc2ccccc2c1 [2-napthylboronic acid] | 24.3831 | 37.2192 | 21.1 | 0.06402 | 0.2437 | 0.09593 | – |
| lipopolysaccharide [LPS, reference compound] | – | – | – | – | – | – | nuclear translocation of NF-κB |
| CC(C)(C)OC(=O)n1cccc1B(O)O [N-boc-2-pyrroleboronic acid] | 60.6873 | 51.264 | 39.41 | −0.0675 | 0.05743 | 0.1837 | – |
| CCS(=O)(=O)c1ccc(B(O)O)cc1 [4-ethylsulfonyl-phenylboronic acid] | 67.61 | 66.47 | 37.46 | 0.00184 | 0.1802 | 0.129 | – |
